As usually defined, the MIC is the least concentration at which growth counts as inhibited. Low values mean greater potency, high ones weaker potency.

Common to all, as to test: ≥ marks a high value that may be exact or a test limit, other limits are often not marked, values filed in µg/mL are converted to µM
For test [1], the system named is Bacillus subtilis ATCC 9466.
The subject of test [2] is Pseudomonas aeruginosa.
The subject of test [3] is Staphylococcus aureus Cowan 1.
Test [4] has as its system Staphylococcus aureus ATCC 6538P.
In test [5] the test system is Escherichia coli HB101.
The subject of test [6] is Staphylococcus aureus.
Test [7] has as its system Stenotrophomonas maltophilia FC.
Test [8] deals with Candida albicans.
In test [9] the test system is Burkholderia cepacia 6/06.
Test [10] deals with Pseudomonas aeruginosa ATCC 15442.
Test [11] relates to Klebsiella pneumoniae ATCC 13883.
Test [12] concerns Salmonella enterica subsp. enterica serovar Choleraesuis ATCC 10708.
Test [13] deals with Staphylococcus aureus ATCC 29213.
Test [14] deals with Staphylococcus aureus ATCC 43300.
In test [15] the test system is Staphylococcus epidermidis ATCC 12228.
Test [16] relates to Staphylococcus aureus ATCC 33591.
In test [17] the test system is Escherichia coli ATCC 25922.
In test [18] the test system is Acinetobacter baumannii ATCC 19606.
For test [19], the system named is Pseudomonas aeruginosa ATCC 27853.
Test [20] has as its system Salmonella typhimurium ATCC 7731.
The test system of test [21] is Bacillus subtilis CMCC 63501.
The subject of test [22] is Salmonella enterica subsp. enterica serovar Typhimurium ATCC 14028.
For test [23], the system named is Pseudomonas aeruginosa PAO1.
Test [24] relates to Enterococcus faecalis ATCC 29212.
Test [25] relates to Escherichia coli UB1005.
Test [26] has as its system Pseudomonas aeruginosa H188.
In test [27] the test system is Escherichia coli.
Test [28] has as its system Escherichia coli DH5alpha.
Test [29] concerns Vibrio anguillarum ATCC 19264.
Test [30] relates to Vibrio alginolyticus ATCC 17749.
For test [31], the system named is Vibrio parahaemolyticus ATCC 33847.
In test [32] the test system is Aeromonas hydrophila ATCC 7966.
The test system of test [33] is Listeria monocytogenes ATCC 19115.
Test [34] concerns Staphylococcus aureus ATCC 6538.
The subject of test [35] is Streptococcus pneumoniae ATCC 49619.
Test [36] has as its system Mycobacterium tuberculosis H37Rv.

SMILES strings stand for the structures. Values after ≈ are worked out from the molar mass of the structure shown. Values joined by “and” are separate entries in the source; they are usually repeats but may differ in a detail not shown here. Identical values can stand only once.

Regarding `CSCC[C@H](NC(=O)[C@@H](NC(=O)CNC(=O)[C@H](CC(C)C)NC(=O)[C@H](CCCCN)NC(=O)[C@H](CCCCN)NC(=O)[C@H](CC(C)C)NC(=O)[C@H](CCSC)NC(=O)[C@@H](NC(=O)[C@H](CCCCN)NC(=O)[C@H](Cc1cnc[nH]1)NC(=O)[C@H](CC(C)C)NC(=O)[C@H](C)N)[C@@H](C)O)[C@@H](C)O)C(=O)N[C@@H](C)C(=O)N[C@@H](CC(C)C)C(N)=O` [ALHKTMLKKLGTMAL], the MIC in test [1] is no less than 45 µM; in test [2], greater than 45 µM; in test [3] it was no less than 44.9 µM; in [4], no less than 45 µM; in [5], no less than 44.9 µM; in test [6], greater than 45 µM. In addition, the minimal inhibitory concentration (MIC) is no less than 45 µM in test [7], greater than 45 µM in [8], no less than 45 µM in test [9] and no less than 45 µM in test [10].

With `CC[C@H](C)[C@H](NC(=O)[C@H](C)NC(=O)[C@H](CO)NC(=O)[C@@H]1CCCN1C(=O)[C@@H](NC(=O)[C@H](CC(C)C)NC(=O)[C@H](CO)NC(=O)[C@H](Cc1ccccc1)NC(=O)[C@H](CC(C)C)NC(=O)[C@@H](N)Cc1ccccc1)[C@@H](C)CC)C(=O)NCC(=O)NCC(=O)N[C@@H](CC(C)C)C(=O)N[C@H](C(=O)N[C@@H](CO)C(=O)N[C@@H](C)C(=O)N[C@@H](Cc1ccccc1)C(=O)N[C@@H](CCCCN)C(=O)O)[C@@H](C)CC` [FLFSLIPSAIGGLISAFK], the MIC in test [11] is no less than 60 µM; in [12], no less than 60 µM; in test [13], 5 µM (≈ 9.41 µg/mL); in [14], 5 µM (≈ 9.41 µg/mL); in test [15], 7.5 µM (≈ 14.1 µg/mL); in [16], 5 µM (≈ 9.41 µg/mL). Also, the MIC is 50 µM (≈ 94.1 µg/mL) in test [17], 20 µM (≈ 37.6 µg/mL) in test [18] and 40 µM (≈ 75.3 µg/mL) in test [19].

As for `CC[C@H](C)[C@H](NC(=O)[C@H](CCCCN)NC(=O)[C@H](CCCCN)NC(=O)[C@H](Cc1ccccc1)NC(=O)[C@H](CC(C)C)NC(=O)[C@H](CCCCN)NC(=O)[C@H](Cc1c[nH]c2ccccc12)NC(=O)[C@H](CCCCN)NC(=O)[C@@H](NC(=O)[C@H](CCCN=C(N)N)NC(=O)[C@@H](NC(=O)[C@H](CCCN=C(N)N)NC(=O)[C@@H](NC(=O)[C@H](CCCN=C(N)N)NC(=O)[C@@H](N)Cc1ccccc1)[C@@H](C)CC)C(C)C)C(C)C)C(N)=O` [FRIRVRVKWKLFKKI], the MIC is 4 µM (≈ 8.07 µg/mL) in test [20]; 2 µM and 4 µM in test [13]; 1 µM (≈ 2.02 µg/mL) in [21]; 0.5 µM (≈ 1.01 µg/mL) in [15]; 4 µM (≈ 8.07 µg/mL) in [22]; 2 µM (≈ 4.03 µg/mL) in test [23]. The MIC was 2 µM and 4 µM in [17]; 1 µM (≈ 2.02 µg/mL) in test [24]; 2 µM (≈ 4.03 µg/mL) in [25]; 2 µM (≈ 4.03 µg/mL) in test [19].

Regarding `CC[C@H](C)[C@H](NC(=O)[C@H](C)NC(=O)[C@H](CCCCN)NC(=O)[C@H](CC(C)C)NC(=O)[C@H](C)NC(=O)[C@@H](NC(=O)[C@H](Cc1cnc[nH]1)NC(=O)[C@H](CC(C)C)NC(=O)[C@H](C)NC(=O)[C@@H](NC(=O)[C@H](CCCCN)NC(=O)[C@H](CCCCN)NC(=O)[C@H](C)NC(=O)[C@H](CO)NC(=O)[C@H](CCCCN)NC(=O)[C@H](Cc1ccccc1)NC(=O)[C@@H](NC(=O)[C@H](CCCCN)NC(=O)[C@H](CC(C)C)NC(=O)[C@H](Cc1ccccc1)NC(=O)[C@H](CO)NC(=O)[C@H](CCCCN)NC(=O)[C@H](Cc1c[nH]c2ccccc12)NC(=O)[C@H](CCCCN)NC(C)=O)[C@@H](C)O)[C@@H](C)O)[C@@H](C)O)C(=O)N[C@@H](CO)C(=O)N[C@@H](CO)C(N)=O` [KWKSFLKTFKSAKKTALHTALKAISS], the MIC worked out at 1.37 µM (≈ 4.06 µg/mL) in [26]; 0.342 µM (≈ 1.01 µg/mL) in test [27]; 1.37 µM (≈ 4.06 µg/mL) in test [28]; 0.685 µM (≈ 2.03 µg/mL) in [17]; 1.37 µM (≈ 4.06 µg/mL) in test [19].

`CC(C)C[C@H](N)C(=O)NCC(=O)NCC(=O)N[C@@H](CC(=O)O)C(=O)N[C@@H](CC(N)=O)C(=O)N[C@@H](Cc1ccc(O)cc1)C(=O)NCC(=O)N[C@H](C(=O)N[C@@H](Cc1ccccc1)C(=O)N[C@@H](CO)C(=O)NCC(=O)N[C@@H](CO)C(=O)N[C@@H](CC(N)=O)C(=O)NCC(=O)N[C@@H](CC(N)=O)C(=O)N[C@@H](CC(N)=O)C(=O)N[C@@H](Cc1ccccc1)C(=O)N[C@@H](CCC(N)=O)C(=O)N[C@@H](Cc1cnc[nH]1)C(=O)NCC(=O)N[C@@H](CO)C(=O)N[C@@H](CC(N)=O)C(=O)O)[C@@H](C)O` [LGGDNYGTFSGSNGNNFQHGSN]: the MIC in test [29] is no less than 44.6 µM; in test [30] it was no less than 44.6 µM; in test [31], 22.3 µM (≈ 50 µg/mL); in test [32], no less than 44.6 µM; in [33], 1.39 µM (≈ 3.13 µg/mL); in test [34], 2.78 µM (≈ 6.25 µg/mL).

Turning to `C[C@@H](O)[C@H](N)C(=O)N[C@@H](CCCCN)C(=O)N1CCC[C@H]1C(=O)N[C@@H](CCCCN)C(=O)NCC(=O)N[C@H](C(=O)N[C@@H](CCCCN)C(=O)N1CCC[C@H]1C(=O)N[C@@H](CCCCN)C(=O)NCC(=O)N[C@H](C(=O)N[C@@H](CCCCN)C(=O)N1CCC[C@H]1C(=O)N[C@@H](CCCCN)C(=O)NCC(=O)N[C@H](C(=O)N[C@@H](CCCCN)C(=O)N1CCC[C@H]1C(=O)N[C@@H](CCCCN)C(=O)NCC(N)=O)[C@@H](C)O)[C@@H](C)O)[C@@H](C)O` [TKPKGTKPKGTKPKGTKPKG], the MIC in test [35] and in [36] was no less than 300 µM throughout.

(Values after DBAASP.)
